Test results as given in ChEMBL document CHEMBL3351602 (Eur J Med Chem, 2014).
The source made the active and inactive calls. The calls are words filed in the database; no cut-off is given here.

Experiments:
MCF7 [1] = assay: Cytotoxicity against human MCF7 cells assessed as reduction in cell viability after 48 hrs by MTT assay; format: functional, cell-based; conditions: MCF7, 48 h
MCF7 [2] = assay: Cytotoxicity against human MCF7 cells assessed as reduction in cell viability after 96 hrs by MTT assay; format: functional, cell-based; conditions: MCF7, 96 h
MDA-MB-231 [3] = assay: Cytotoxicity against human MDA-MB-231 cells assessed as reduction in cell viability after 96 hrs by MTT assay; format: functional, cell-based; conditions: MDA-MB-231, 96 h
MEF = assay: Cytotoxicity against MEFs assessed as reduction in cell viability up to 100 uM after 48 to 96 hrs by MTT assay; format: cell-based; conditions: mouse
MDA-MB-231 [4] = assay: Cytotoxicity against human MDA-MB-231 cells assessed as reduction in cell viability after 48 hrs by MTT assay; format: functional, cell-based; conditions: MDA-MB-231, 48 h
MCF7 [5] = assay: Cytotoxicity against human MCF7 cells assessed as induction of cell death at 0.5 to 25 uM after 48 hrs by MTT assay; format: functional, cell-based
MDA-MB-231 [6] = assay: Cytotoxicity against human MDA-MB-231 cells assessed as induction of cell death at 0.5 to 25 uM after 48 hrs by MTT assay; format: functional, cell-based
MCF7 [7] = assay: Ratio of ospemifene IC50 to compound IC50 for human MCF7 cells assessed as reduction in cell viability after 96 hrs by MTT assay; format: functional
MCF7 [8] = assay: Ratio of tamoxifen IC50 to compound IC50 for human MCF7 cells assessed as reduction in cell viability after 96 hrs by MTT assay; format: functional
MCF7 [9] = assay: Induction of cell death in human MCF7 cells at 10 to 50 uM after 24 hrs using calcein AM and ethidium homodimer-1 by live/dead assay; format: functional
MDA-MB-231 [10] = assay: Ratio of ospemifene IC50 to compound IC50 for human MDA-MB-231 cells assessed as reduction in cell viability after 96 hrs by MTT assay; format: functional
MDA-MB-231 [11] = assay: Ratio of tamoxifen IC50 to compound IC50 for human MDA-MB-231 cells assessed as reduction in cell viability after 96 hrs by MTT assay; format: functional
MDA-MB-231 [12] = assay: Induction of cell death in human MDA-MB-231 cells at 10 to 50 uM after 24 hrs using calcein AM and ethidium homodimer-1 by live/dead assay; format: functional, cell-based
MCF7 [13] = assay: Induction of cell death in human MCF7 cells at 10 uM after 24 hrs using calcein AM and ethidium homodimer-1 by live/dead assay; format: functional
MDA-MB-231 [14] = assay: Induction of cell death in human MDA-MB-231 cells at 10 uM after 24 hrs using calcein AM and ethidium homodimer-1 by live/dead assay; format: functional

SMILES: OCCOc1ccc(/C(=C(/CCCl)c2ccccc2)c2ccccc2)cc1 [OSPEMIFENE]
- IC50 (MCF7 [1]): > 100 µM
- IC50 (MCF7 [2]): 55 µM
- IC50 (MDA-MB-231 [3]): > 100 µM
- Activity (MEF): Non-toxic
- IC50 (MDA-MB-231 [4]): > 100 µM

SMILES: [N-]=[N+]=NCCOc1ccc(/C(=C(/CCN=[N+]=[N-])c2ccccc2)c2ccccc2)cc1
- Activity (MCF7 [5]): inactive
- Activity (MDA-MB-231 [6]): inactive

SMILES: O=C(NCC/C(=C(\c1ccccc1)c1ccc(OCCO)cc1)c1ccccc1)Oc1ccccc1
- IC50 (MCF7 [1]): 76 µM
- IC50 (MCF7 [2]): 50 µM
- IC50 (MDA-MB-231 [3]): 62.3 µM
- Activity (MCF7 [5]): Active
- Activity (MDA-MB-231 [6]): Active
- IC50 (MDA-MB-231 [4]): > 100 µM

SMILES: NCC/C(=C(\c1ccccc1)c1ccc(OCCO)cc1)c1ccccc1
- IC50 (MCF7 [1]): 15.9 µM
- IC50 (MCF7 [2]): 12.4 µM
- Ratio IC50 (MCF7 [7]): 5
- IC50 (MDA-MB-231 [3]): 14.5 µM
- Ratio IC50 (MCF7 [8]): >5
- Activity (MCF7 [9]): 50%
- Activity (MEF): Non-toxic
- Ratio IC50 (MDA-MB-231 [10]): 5
- Ratio IC50 (MDA-MB-231 [11]): >5
- Activity (MDA-MB-231 [12]): Active
- Activity (MCF7 [5]): Active
- Activity (MDA-MB-231 [6]): Active
- IC50 (MDA-MB-231 [4]): 25 µM

SMILES: CS(=O)(=O)OCCOc1ccc(/C(=C(/CCCl)c2ccccc2)c2ccccc2)cc1
- Activity (MCF7 [5]): inactive
- Activity (MDA-MB-231 [6]): inactive

SMILES: CC/C(=C(\c1ccccc1)c1ccc(OCCN(C)C)cc1)c1ccccc1 [TAMOXIFEN]
- Activity (MEF): Non-toxic

SMILES: NCCOc1ccc(/C(=C(/CCN)c2ccccc2)c2ccccc2)cc1
- IC50 (MCF7 [1]): 23.6 µM
- IC50 (MCF7 [2]): 11.2 µM
- Ratio IC50 (MCF7 [7]): 5
- IC50 (MDA-MB-231 [3]): 13.4 µM
- Ratio IC50 (MCF7 [8]): >5
- Activity (MCF7 [9]): Active
- Activity (MEF): Non-toxic
- Ratio IC50 (MDA-MB-231 [10]): 5
- Ratio IC50 (MDA-MB-231 [11]): >5
- Activity (MDA-MB-231 [12]): Active
- Activity (MCF7 [5]): Active
- Activity (MDA-MB-231 [6]): Active
- IC50 (MDA-MB-231 [4]): 17.1 µM
- Activity (MCF7 [13]): 70%
- Activity (MDA-MB-231 [14]): 70%

SMILES: [N-]=[N+]=NCCOc1ccc(/C(=C(/CCCl)c2ccccc2)c2ccccc2)cc1
- Activity (MCF7 [5]): inactive
- Activity (MDA-MB-231 [6]): inactive

SMILES: [N-]=[N+]=NCC/C(=C(\c1ccccc1)c1ccc(OCCO)cc1)c1ccccc1
- IC50 (MCF7 [1]): > 100 µM
- IC50 (MCF7 [2]): > 100 µM
- IC50 (MDA-MB-231 [3]): > 100 µM
- Activity (MCF7 [5]): Active
- IC50 (MDA-MB-231 [4]): > 100 µM
